The SangsterLogP compilation

Assay: method code SF, from DOI: 10.1021/js960111p, PMID: 9002468
Settings: not given
Work on `Oc1ccc2[nH]ccc2c1` yielded a logP of 1.29. Work on `Cn1ccc2ccccc21` yielded a logP of 2.55. With `COc1ccc2[nH]ccc2c1` the logP was 2.08. `Clc1ccc2[nH]ccc2c1` gave a logP of 2.93. `c1ccc2c3c([nH]c2c1)CCCC3` showed a logP of 3. Molecule `Cc1ccc2[nH]c(C)cc2c1` has a logP of 3.02. For `Cc1ccc2[nH]ccc2c1`, the logP was 2.67.

Same assay, conditions: pH 12.0
In the case of `c1ccc2c(c1)[nH]c1cnccc12`, the logD is reported as 2.65. `CC1NCCc2c1[nH]c1ccc(Cl)cc21` (stereo not drawn) gave a logD of 2.3. Molecule `CC1NCCc2c1[nH]c1ccccc21` (stereo not drawn) has a logD of 2.06. Work on `Cc1nccc2c1[nH]c1ccccc12` yielded a logD of 2.89. `Cn1c2ccccc2c2ccccc21` showed a logD of 3.99. Molecule `COc1ccc2c3c([nH]c2c1)C(C)NCC3` (stereo not drawn) has a logD of 1.37. `CC1NCCc2c1[nH]c1ccc([N+](=O)[O-])cc21` (stereo not drawn) gave a logD of 2.07. `COc1ccc2[nH]c3c(c2c1)CCNC3C` (stereo not drawn) gave a logD of 1.15. `Cc1nccc2c3ccccc3n(C)c12` showed a logD of 3.01. In the case of `NCCc1c[nH]c2ccccc12`, the logD is reported as 1.35. In the case of `c1ccc2c3c([nH]c2c1)CNCC3`, the logD is reported as 1.98.
